Earlier results on 1 molecule are cited in PMC9736374, “Design, Synthesis and Antimicrobial Properties of New Tetracyclic Quinobenzothiazine Derivatives” (International Journal of Molecular Sciences, 2022).

This data set deals with MRSA 63718. Also noted: method as in PMID 25692135. As to conditions: cited from earlier work.

For `CN[C@H](CC(C)C)C(=O)N[C@H]1C(=O)N[C@@H](CC(N)=O)C(=O)N[C@H]2C(=O)N[C@H]3C(=O)N[C@H](C(=O)N[C@H](C(=O)O)c4cc(O)cc(O)c4-c4cc3ccc4O)[C@H](O)c3ccc(c(Cl)c3)Oc3cc2cc(c3O[C@@H]2O[C@H](CO)[C@@H](O)[C@H](O)[C@H]2O[C@H]2C[C@](C)(N)[C@H](O)[C@H](C)O2)Oc2ccc(cc2Cl)[C@H]1O` [vancomycin], the MIC of vancomycin is 2 µg/mL.
